{"source": "patent US12234221B2", "about": "“Pyridine carboxamide compounds for inhibiting NAV1.8” (Lieber Institute, Inc., priority 2018, dated 2025)", "note": "pIC50: −log10 of the molar value."}
{"target": "T1, human Nav1.8 (hNav1.8) ion channel (Homo sapiens, UniProt Q9Y5Y9)", "T1 construct": "expressed in transfected cells; host or cells: HEK293", "T1 sequence (Q9Y5Y9 whole entry)": "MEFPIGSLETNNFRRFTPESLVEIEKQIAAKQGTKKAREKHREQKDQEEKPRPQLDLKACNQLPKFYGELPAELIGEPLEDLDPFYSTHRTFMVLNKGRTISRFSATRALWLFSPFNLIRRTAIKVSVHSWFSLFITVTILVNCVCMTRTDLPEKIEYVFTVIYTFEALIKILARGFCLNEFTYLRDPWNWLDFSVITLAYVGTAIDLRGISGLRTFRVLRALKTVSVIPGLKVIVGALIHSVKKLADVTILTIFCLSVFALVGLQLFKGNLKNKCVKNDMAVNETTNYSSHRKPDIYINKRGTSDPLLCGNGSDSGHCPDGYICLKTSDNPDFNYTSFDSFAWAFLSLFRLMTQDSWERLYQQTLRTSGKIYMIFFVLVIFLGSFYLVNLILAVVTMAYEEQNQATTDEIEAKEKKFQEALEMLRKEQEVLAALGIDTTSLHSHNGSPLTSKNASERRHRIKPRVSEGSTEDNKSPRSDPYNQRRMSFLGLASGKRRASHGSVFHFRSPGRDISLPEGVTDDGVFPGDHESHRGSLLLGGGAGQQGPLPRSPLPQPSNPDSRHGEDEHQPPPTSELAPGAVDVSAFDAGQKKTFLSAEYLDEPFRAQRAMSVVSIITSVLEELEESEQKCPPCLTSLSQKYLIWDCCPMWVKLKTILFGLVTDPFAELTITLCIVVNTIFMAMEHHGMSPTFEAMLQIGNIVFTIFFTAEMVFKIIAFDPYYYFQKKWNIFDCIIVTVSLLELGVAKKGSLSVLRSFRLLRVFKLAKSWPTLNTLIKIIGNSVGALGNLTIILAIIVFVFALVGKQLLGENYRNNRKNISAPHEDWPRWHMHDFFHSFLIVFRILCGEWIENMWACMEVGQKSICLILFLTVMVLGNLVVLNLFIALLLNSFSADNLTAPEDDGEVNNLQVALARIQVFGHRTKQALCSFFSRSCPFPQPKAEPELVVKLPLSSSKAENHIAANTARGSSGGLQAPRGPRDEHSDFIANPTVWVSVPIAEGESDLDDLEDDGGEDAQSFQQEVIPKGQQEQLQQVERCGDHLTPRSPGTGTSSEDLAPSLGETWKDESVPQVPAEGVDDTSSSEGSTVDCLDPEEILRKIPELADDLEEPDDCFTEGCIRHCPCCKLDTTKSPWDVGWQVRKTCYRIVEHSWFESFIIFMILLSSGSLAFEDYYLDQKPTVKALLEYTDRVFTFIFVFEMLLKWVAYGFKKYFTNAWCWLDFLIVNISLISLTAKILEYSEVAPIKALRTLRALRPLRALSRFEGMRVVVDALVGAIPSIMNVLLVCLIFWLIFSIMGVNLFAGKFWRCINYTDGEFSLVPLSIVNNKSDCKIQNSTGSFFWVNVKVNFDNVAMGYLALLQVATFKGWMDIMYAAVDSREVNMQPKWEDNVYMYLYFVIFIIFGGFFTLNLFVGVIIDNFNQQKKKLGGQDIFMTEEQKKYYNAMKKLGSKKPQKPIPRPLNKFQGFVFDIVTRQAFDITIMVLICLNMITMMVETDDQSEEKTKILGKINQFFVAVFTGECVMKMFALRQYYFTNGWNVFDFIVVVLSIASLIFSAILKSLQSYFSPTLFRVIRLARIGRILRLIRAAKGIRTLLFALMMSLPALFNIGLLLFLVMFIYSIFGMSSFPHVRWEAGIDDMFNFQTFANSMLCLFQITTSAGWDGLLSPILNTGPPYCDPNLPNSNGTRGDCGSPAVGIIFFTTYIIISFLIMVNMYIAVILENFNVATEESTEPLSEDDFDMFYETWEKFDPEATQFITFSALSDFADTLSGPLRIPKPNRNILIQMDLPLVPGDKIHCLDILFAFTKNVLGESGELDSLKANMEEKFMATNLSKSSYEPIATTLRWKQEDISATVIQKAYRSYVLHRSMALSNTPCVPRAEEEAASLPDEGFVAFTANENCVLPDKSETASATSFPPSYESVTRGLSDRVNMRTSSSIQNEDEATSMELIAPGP", "assay": "Nav1.8 channel inhibition, estimated IC50 (one or more of: fluorescence inhibition assay, PatchXpress, IonFlux HT automated patch clamp)", "assay_type": "cell-based", "settings": "HEK293 cells stably expressing hNav1.8; method used per compound not stated; read-out: Activity range (estimated IC50)", "method": "The ability of pyridine carboxamide derivatives exemplified above to inhibit the Nav1.8 channel was determined using one or more of the methods described below.\nHEK Nav1.8 β1/β2 Stably Expressing Cell Line\nA HEK293 cell line stably expressing the human Nav1.8 (hNav1.8) ion channel with β1/β2 subunits was constructed. The cell line is suitable for IC50 determination in fluorescence and electrophysiological based assays. It is also suitable to form mechanism of action pharmacology studies in electrophysiological assays. HEK293 Nav 1.8 cells are grown as adherent monolayers in DMEM/high glucose media, 10% fetal bovine serum, Na pyruvate (2 mM), Hepes (10 mM) with selection agents G418 (400 mg/L) and puromycin (0.5 mg/L) at 37 degrees C., 10% CO2.\nNav 1.8 Fluorescence Inhibition Assay\nCompounds were made up to or supplied as a 10-mM stock solution using DMSO as the vehicle. Concentration-response curves were generated using a Matrix multichannel pipettor. Compound source plates were made by diluting 10 mM compound stocks to create 500 μM (100×) solutions in DMSO in 96-well v-bottom plates. Compounds were then serially diluted in 100% DMSO to generate a 5 point, 4-fold dilution scheme dose response curve. 2 μL of the 100× dose response curves was then added to preincubation and stimulation assay plates. 100 μL of pre-incubation buffer and 200 μL of stimulation buffer were then added to the plates resulting in a final assay test concentration range of 5 μM to 0.02 μM with a final DMSO concentration of 1%.\nOn the day of assay, plates were washed to remove cell culture media using 2K EBSS buffer (135 mM NaCl, 2 mM KCl, 5 mM Glucose, 2 mM CaCl2), 1 mM MgCl2, 10 mM HEPES, pH 7.4). The Na-sensitive fluorescent dye, Asante Natrium Green-2 (ANG-2) is incubated for 60 min to allow equilibration and then washed with 2K EBSS. Plates are the transferred to a fluorescence plate reader (FLIPR™, Molecular Devices) for fluorescence measurement using an excitation wavelength of 490 nm and an emission wavelength of 565 nm. Compounds are pre-incubated at for 5 min at final test concentration in the presence of ouabain (30 μM) to inhibit Na+ efflux through Na+/K+ exchanger. Following the pre-incubation phase, hNav1.8 channels are stimulated with 10 μM of the pyrethroid deltamethrin to prevent channel inactivation. The assay was run for 15 min with vehicle and 30 μM tetracaine serving as negative and positive controls, respectively. The peak change in fluorescence relative to negative and positive control wells was calculated and fit with a logistic equation to determine IC50.\nPatchXpress Nav 1.8 Inhibition Assay\nHEK-Nav1.8 β1/β2 cells were recorded in whole cell patch-clamp using the PatchXpress automated patch clamp platforms (Molecular Devices). Cells suspensions were obtained by trypsinization of adherent monolayers, followed by gentle rocking for minimally 30 min. Compounds were prepared from 10 mM DMSO stocks.\nNav1.8 channel variants were evaluated using Protocol 1 (FIG. 2) in which cells were initially voltage clamped at a holding potential of −100 mV to maintain Nav1.8 in a closed resting state. After current amplitude becomes stable, the mid-point voltage of steady state inactivation was determined for each cell using a series of 5 sec conditioning steps to increasingly depolarized voltages (−100 to 0 mV) The holding potential was then reset to a voltage that produces ˜50% inactivation (Vhalf−set automatically via PatchXpress scripts) so that closed and inactivated channel inhibition can be assessed. Protocol 1 was run at a frequency of 0.1 Hz until current amplitude is steady (automatically determined by PatchXpress scripts). The effect of test reagent on Nav current amplitude was monitored using custom PatchXpress stability scripts which determines the timing of compound addition and washout. Data were processed and analyzed using DataXpress 2.0 (Molecular Devices). […]"}
{"compound": "Cn1nccc1NC(=O)c1cc(C(F)(F)F)cnc1Oc1ccc(OC(F)(F)F)cc1Cl", "note": "[Example 167, 2-[2-chloro-4-(trifluoromethoxy)phenoxy]-N-(2-methylpyrazol-3-yl)-5-(trifluoromethyl)pyridine-3-carboxamide]", "pIC50": "6.00 to 6.30"}
{"compound": "COc1ccc(Oc2ncc(C(F)(F)F)cc2C(=O)Nc2cccc(S(C)(=O)=O)c2)c(OC)c1", "note": "[Example 54, 2-(2,4-dimethoxyphenoxy)-N-(3-methylsulfonyl-phenyl)-5-(trifluoromethyl)pyridine-3-carboxamide]", "pIC50": "> 6.30"}
{"compound": "CN(C)c1cc(NC(=O)c2cnc(C(F)(F)F)cc2Oc2ccc(OC(F)(F)F)cc2Cl)ccn1", "note": "[Example 73, 4-[2-chloro-4-(trifluoromethoxy)phenoxy]-N-[2-(dimethylamino)-4-pyridyl]-6-(trifluoromethyl)pyridine-3-carboxamide]", "pIC50": "< 6.00"}
{"compound": "CS(=O)(=O)c1cccc(NC(=O)c2cc([N+](=O)[O-])cnc2Oc2ccc(OC(F)(F)F)cc2)c1", "note": "[Example 180, N-(3-methylsulfonylphenyl)-5-nitro-2-[4-(trifluoromethoxy)phenoxy]pyridine-3-carboxamide]", "pIC50": "> 6.30"}
{"compound": "C[S+]([O-])c1cccc(NC(=O)c2cnc(C(F)(F)F)cc2Oc2ccc(OC(F)(F)F)cc2Cl)c1", "note": "(stereo not drawn) [Example 75, 4-[2-chloro-4-(trifluoromethoxy)phenoxy]-N-(3-methylsulfinylphenyl)-6-(trifluoromethyl)pyridine-3-carboxamide]", "pIC50": "> 6.30"}
{"compound": "CS(=O)(=O)c1cccc(NC(=O)c2cc(C(F)(F)F)cnc2Oc2ccc(OC(F)(F)F)cc2Cl)c1", "note": "[Example 142, 2-[2-chloro-4-(trifluoromethoxy)phenoxy]-N-(3-methylsulfonylphenyl)-5-(trifluoromethyl)pyridine-3-carboxamide]", "pIC50": "> 6.30"}
{"compound": "COc1cc(F)ccc1Oc1cc(C(F)(F)F)ncc1C(=O)Nc1ccc[n+]([O-])c1", "note": "[Example 84, 4-(4-fluoro-2-methoxy-phenoxy)-N-(1-oxidopyridin-1-ium-3-yl)-6-(trifluoromethyl)pyridine-3-carboxamide]", "pIC50": "6.00 to 6.30"}
{"compound": "CS(C)(=O)=Nc1cccc(NC(=O)c2cc(C(F)(F)F)cnc2Oc2ccc(OC(F)(F)F)cc2)c1", "note": "[Example 129, N-[3-[[dimethyl(oxo)-λ^6-sulfanylidene]amino]phenyl]-2-[4-(trifluoromethoxy)phenoxy]-5-(trifluoromethyl)pyridine-3-carboxamide]", "pIC50": "< 6.00"}
{"compound": "CS(=O)(=O)c1cccc(NC(=O)c2cc(C(F)(F)F)cnc2Oc2ccc(OCC(F)(F)F)cc2)c1", "note": "[Example 50, N-(3-methylsulfonyl-phenyl)-2-[4-(2,2,2-trifluoroethoxy)phenoxy]-5-(trifluoromethyl)pyridine-3-carboxamide]", "pIC50": "> 6.30"}
{"compound": "CS(=O)(=O)c1cccc(NC(=O)c2cnc(C(F)(F)F)cc2Oc2ccc(OC(F)(F)F)cc2Cl)c1", "note": "[Example 74, 4-[2-chloro-4-(trifluoromethoxy)phenoxy]-N-(3-methylsulfonylphenyl)-6-(trifluoromethyl)pyridine-3-carboxamide]", "pIC50": "> 6.30"}
{"compound": "CS(=O)(=O)c1cccc(NC(=O)c2cc(C(F)(F)F)cnc2Oc2ccc(F)cc2Cl)c1", "note": "[Example 36, 2-(2-chloro-4-fluoro-phenoxy)-N-(3-methylsulfonyl-phenyl)-5-(trifluoromethyl)pyridine-3-carboxamide]", "pIC50": "> 6.30"}
{"compound": "COc1cc(F)ccc1Oc1cc(C(F)(F)F)ncc1C(=O)Nc1cccc([S+](C)[O-])c1", "note": "(stereo not drawn) [Example 68, 4-(4-fluoro-2-methoxy-phenoxy)-N-(3-methylsulfinylphenyl)-6-(trifluoromethyl)pyridine-3-carboxamide]", "pIC50": "> 6.30"}
{"compound": "COc1cc(F)ccc1Oc1cc(C(F)(F)F)ncc1C(=O)Nc1cccc(S(C)(=O)=O)c1", "note": "[Example 67, 4-(4-fluoro-2-methoxy-phenoxy)-N-(3-methylsulfonylphenyl)-6-(trifluoromethyl)pyridine-3-carboxamide]", "pIC50": "> 6.30"}
{"compound": "COc1cc(F)ccc1Oc1ncc(C(F)(F)F)cc1C(=O)Nc1cccc(N2CCOCC2)c1", "note": "[Example 2, 2-(4-fluoro-2-methoxy-phenoxy)-N-(3-morpholinophenyl)-5-(trifluoromethyl)pyridine-3-carboxamide]", "pIC50": "< 6.00"}
{"compound": "CS(=O)(=O)c1cccc(NC(=O)c2cc(C(F)(F)F)cnc2Oc2cc(F)ccc2F)c1", "note": "[Example 43, 2-(2,5-difluorophenoxy)-N-(3-methylsulfonyl-phenyl)-5-(trifluoromethyl)pyridine-3-carboxamide]", "pIC50": "6.00 to 6.30"}
{"compound": "COc1cc(NC(=O)c2cc(C(F)(F)F)cnc2Oc2ccc(F)cc2OC)ccn1", "note": "[Example 15, 2-(4-fluoro-2-methoxy-phenoxy)-N-(2-methoxy-4-pyridyl)-5-(trifluoromethyl)pyridine-3-carboxamide]", "pIC50": "< 6.00"}
{"compound": "O=C(Nc1ccc[n+]([O-])c1)c1cnc(C(F)(F)F)cc1Oc1ccc(OC(F)(F)F)cc1", "note": "[Example 87, N-(1-oxidopyridin-1-ium-3-yl)-4-[4-(trifluoromethoxy)phenoxy]-6-(trifluoromethyl)pyridine-3-carboxamide]", "pIC50": "> 6.30"}
{"compound": "COc1ccc(Oc2ncc(C(F)(F)F)cc2C(=O)Nc2ccc[n+]([O-])c2)c(OC)c1", "note": "[Example 137, 3-(2-(2,4-dimethoxyphenoxy)-5-(trifluoromethyl)nicotinamido)pyridine 1-oxide]", "pIC50": "> 6.30"}
{"compound": "O=C(Nc1ccnnc1)c1cc(C(F)(F)F)cnc1Oc1ccc(F)cc1F", "note": "[Example 176, 2-(2,4-difluorophenoxy)-N-pyridazin-4-yl-5-(trifluoromethyl)pyridine-3-carboxamide]", "pIC50": "< 6.00"}
{"compound": "O=C(Nc1ccc[n+]([O-])c1)c1cc(C(F)(F)F)cnc1Oc1ccc(F)cc1F", "note": "[Example 135, 2-(2,4-difluorophenoxy)-N-(1-oxidopyridin-1-ium-3-yl)-5-(trifluoromethyl)pyridine-3-carboxamide]", "pIC50": "< 6.00"}
{"compound": "Cn1cnc(NC(=O)c2cc(C(F)(F)F)cnc2Oc2ccc(OC(F)(F)F)cc2Cl)n1", "note": "[Example 170, 2-[2-chloro-4-(trifluoromethoxy)phenoxy]-N-(1-methyl-1,2,4-triazol-3-yl)-5-(trifluoromethyl)pyridine-3-carboxamide]", "pIC50": "< 6.00"}
{"compound": "COc1cc(F)ccc1Oc1ncc(C(F)(F)F)cc1C(=O)Nc1ccc(C#N)cc1", "note": "[Example 5, N-(4-cyanophenyl)-2-(4-fluoro-2-methoxy-phenoxy)-5-(trifluoromethyl)pyridine-3-carboxamide]", "pIC50": "< 6.00"}
{"compound": "CS(=O)(=O)c1cccc(NC(=O)c2cc(Cl)cnc2Oc2ccc(OC(F)(F)F)cc2)c1", "note": "[Example 181, 5-chloro-N-(3-methylsulfonylphenyl)-2-[4-(trifluoromethoxy)phenoxy]pyridine-3-carboxamide]", "pIC50": "> 6.30"}
{"compound": "O=C(Nc1cnns1)c1cc(C(F)(F)F)cnc1Oc1ccc(OC(F)(F)F)cc1Cl", "note": "[Example 166, 2-[2-chloro-4-(trifluoromethoxy)phenoxy]-N-(thiadiazol-5-yl)-5-(trifluoromethyl)pyridine-3-carboxamide]", "pIC50": "6.00 to 6.30"}
{"compound": "O=C(Nc1ccnnc1)c1cc(C(F)(F)F)cnc1Oc1ccc(Cl)cc1Cl", "note": "[Example 63, 2-(2,4-dichlorophenoxy)-N-pyridazin-4-yl-5-(trifluoromethyl)pyridine-3-carboxamide]", "pIC50": "6.00 to 6.30"}
{"compound": "CS(=O)(=O)c1cccc(NC(=O)c2cc(C(F)(F)F)cnc2Oc2ccccc2)c1", "note": "[Example 41, N-(3-methylsulfonyl-phenyl)-2-phenoxy-5-(trifluoromethyl)pyridine-3-carboxamide]", "pIC50": "< 6.00"}
{"compound": "COc1ccc(Oc2ncc(C(F)(F)F)cc2C(=O)Nc2cccc(S(C)(=N)=O)c2)c(Cl)c1", "note": "(stereo not drawn) [Example 61, 2-(2-chloro-4-methoxy-phenoxy)-N-[3-(methylsulfonimidoyl)phenyl]-5-(trifluoromethyl)pyridine-3-carboxamide]", "pIC50": "> 6.30"}
